Target: T1, BRD4 bromodomains (Homo sapiens, UniProt O60885)
T1 construct: fused on or other part: T7 phage capsid protein (phage-display fusion; the phage DNA is read out by qPCR)
Assay: BROMOscan bromodomain competition binding assay (DiscoveRx)
Details: Kd from 11 compound concentrations ranging from 0 to 10 μM, read-out: BROMOscan Relative Activity
Procedure, shortened: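 Compounds in 0.1% DMSO/0.9% MEG competed with a solid-phase acetylated peptide for T7 phage-fused BRD4 bromodomains, with the retained bromodomain measured by qPCR.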

Row | Compound | Kd [µM]
1 | Cc1noc(C)c1-c1ccc2nc(N3CCc4[nH]ncc4C3)nc(NCc3cccc(Cl)c3)c2c1 [Example 290, N-(3-chlorobenzyl)-6-(3,5-dimethylisoxazol-4-yl)-2-(1,4,6,7-tetrahydro-5H-pyrazolo[4,3-c]pyridin-5-yl)quinazolin-4-amine] | 0.5 to 5
2 | Cc1noc(C)c1-c1ccc2nc(-c3cnn(CC(C)(C)O)c3)nc(N3CCNC[C@@H]3c3ccccc3)c2c1 [Example 291, (S)-1-(4-(6-(3,5-dimethylisoxazol-4-yl)-4-(2-phenylpiperazin-1-yl)quinazolin-2-yl)-1H-pyrazol-1-yl)-2-methylpropan-2-ol] | < 0.5
3 | Cn1cc(-c2ccc3nc(-c4cnn(CC(C)(C)O)c4)nc(N4CCOC[C@@H]4c4ccccc4)c3c2)ccc1=O [Example 292, (S)-5-(2-(1-(2-hydroxy-2-methylpropyl)-1H-pyrazol-4-yl)-4-(3-phenylmorpholino)quinazolin-6-yl)-1-methylpyridin-2(1H)-one] | < 0.5
4 | Cc1noc(C)c1-c1ccc2nc(N3CCN(C)CC3)nc(N3CCOC[C@@H]3c3ccccc3)c2c1 [Example 293, (S)-4-(6-(3,5-dimethylisoxazol-4-yl)-2-(4-methylpiperazin-1-yl)quinazolin-4-yl)-3-phenylmorpholine] | < 0.5
5 | CC(=O)N1CCN(c2nc(N3CCOC[C@@H]3c3ccccc3)c3cc(-c4c(C)noc4C)ccc3n2)CC1 [Example 294, (S)-1-(4-(6-(3,5-dimethylisoxazol-4-yl)-4-(3-phenylmorpholino)quinazolin-2-yl)piperazin-1-yl)ethan-1-one] | < 0.5
6 | Cc1noc(C)c1-c1ccc2nc(N3CCN(CC(C)(C)O)CC3)nc(N3CCOC[C@@H]3c3ccccc3)c2c1 [Example 295, (S)-1-(4-(6-(3,5-dimethylisoxazol-4-yl)-4-(3-phenylmorpholino)quinazolin-2-yl)piperazin-1-yl)-2-methylpropan-2-ol] | < 0.5
7 | CNC(=O)C1CCN(c2nc(N3CCOC[C@@H]3c3ccccc3)c3cc(-c4c(C)noc4C)ccc3n2)CC1 [Example 296, (S)-1-(6-(3,5-dimethylisoxazol-4-yl)-4-(3-phenylmorpholino)quinazolin-2-yl)-N-methylpiperidine-4-carboxamide] | < 0.5
8 | Cc1noc(C)c1-c1ccc2nc(-c3cnn(CC(N)=O)c3)nc(N3CCOC[C@@H]3c3ccccc3)c2c1 [Example 297, (S)-2-(4-(6-(3,5-dimethylisoxazol-4-yl)-4-(3-phenylmorpholino)quinazolin-2-yl)-1H-pyrazol-1-yl)acetamide] | < 0.5
9 | CNC(=O)CN1CCN(c2nc(N3CCOC[C@@H]3c3ccccc3)c3cc(-c4c(C)noc4C)ccc3n2)CC1 [Example 298] | < 0.5
10 | CCNC(=O)N1CCN(c2nc(N3CCOC[C@@H]3c3ccccc3)c3cc(-c4c(C)noc4C)ccc3n2)CC1 [Example 299, (S)-4-(6-(3,5-dimethylisoxazol-4-yl)-4-(3-phenylmorpholino)quinazolin-2-yl)-N-ethylpiperazine-1-carboxamide] | < 0.5
11 | Cc1noc(C)c1-c1ccc2nc(N3CCN(C(=O)c4cnn(C)c4)CC3)nc(N3CCOC[C@@H]3c3ccccc3)c2c1 [Example 300, (S)-(4-(6-(3,5-dimethylisoxazol-4-yl)-4-(3-phenylmorpholino)quinazolin-2-yl)piperazin-1-yl)(1-methyl-1H-pyrazol-4-yl)methanone] | < 0.5
12 | Cc1noc(C)c1-c1ccc2nc(-c3cnn(CC(=O)N(C)C)c3)nc(N3CCOC[C@@H]3c3ccccc3)c2c1 [Example 301, (S)-2-(4-(6-(3,5-dimethylisoxazol-4-yl)-4-(3-phenylmorpholino)quinazolin-2-yl)-1H-pyrazol-1-yl)-N,N-dimethylacetamide] | < 0.5
13 | Cc1noc(C)c1-c1ccc2nc(-c3cnn(CS(C)(=O)=O)c3)nc(N3CCOC[C@@H]3c3ccccc3)c2c1 [Example 302, (S)-4-(6-(3,5-dimethylisoxazol-4-yl)-2-(1-((methylsulfonyl)methyl)-1H-pyrazol-4-yl)quinazolin-4-yl)-3-phenylmorpholine] | < 0.5
